One series deals with MCF7. The series can be described thus: Cytotoxicity against chemo-sensitive human MCF7 cells assessed as inhibition rate at 5 uM incubated for 48 hrs by CCK8 assay relative to control. It is filed as functional.
The subject of series [1] is NCI/ADR-RES. Briefly: Cytotoxicity against doxorubicin resistant human MCF-7/ADR cells assessed as inhibition rate at 5 uM incubated for 48 hrs by CCK8 assay relative to control. The series is classed as functional. On the technique in general: Tetrazolium dyes change colour on reduction, which living cells bring about.
Series [2] deals with NCI/ADR-RES. Briefly: Reversal fold, ratio of doxorubicin IC50 to doxorubicin IC50 in presence of test compound for reversal of P-gp mediated multidrug resistance in doxorubicin resistant human MCF-7/ADR cells incubated for 48 hrs by CCK-8 assay. It is filed as functional.
In series [3] the target is T1, ATP-dependent translocase ABCB1 (Homo sapiens, UniProt P08183). Briefly: Inhibition of P-gp-mediated rhodamine-123 efflux in doxorubicin-resistant human MCF-7/ADR cells assessed as increase in Rh123 accumulation incubated for 4 hrs by fluorescence microscopic analysis. The series is classed as cell-based. The settings on record: at 0.1 to 10 µM, dose 0.1-10 µM.
Series [4] relates to NCI/ADR-RES. The series can be described thus: Effect on P-gp expression level in doxorubicin-resistant human MCF-7/ADR cells at 0.5 to 5 uM incubated for 48 hrs by Western blot analysis. The series is classed as functional, cell-based. The settings on record: dose 0.5-5 µM. (In general: A western blot detects proteins with antibodies after separation by electrophoresis.)
For series [5], the target named is T1, ATP-dependent translocase ABCB1. The series can be described thus: Inhibition of P-gp in doxorubicin resistant human MCF-7/ADR cells assessed as increase in UIC-2 binding to cell at 50 uM incubated for 10 mins by UIC-2 reactivity shift assay. It is filed as cell-based.

Activity calls are given as the source filed them. No cut-off for these calls is given here.

In general, inhibition refers to the relative decrease from the control value, in per cent.

T1 sequence (P08183 whole entry): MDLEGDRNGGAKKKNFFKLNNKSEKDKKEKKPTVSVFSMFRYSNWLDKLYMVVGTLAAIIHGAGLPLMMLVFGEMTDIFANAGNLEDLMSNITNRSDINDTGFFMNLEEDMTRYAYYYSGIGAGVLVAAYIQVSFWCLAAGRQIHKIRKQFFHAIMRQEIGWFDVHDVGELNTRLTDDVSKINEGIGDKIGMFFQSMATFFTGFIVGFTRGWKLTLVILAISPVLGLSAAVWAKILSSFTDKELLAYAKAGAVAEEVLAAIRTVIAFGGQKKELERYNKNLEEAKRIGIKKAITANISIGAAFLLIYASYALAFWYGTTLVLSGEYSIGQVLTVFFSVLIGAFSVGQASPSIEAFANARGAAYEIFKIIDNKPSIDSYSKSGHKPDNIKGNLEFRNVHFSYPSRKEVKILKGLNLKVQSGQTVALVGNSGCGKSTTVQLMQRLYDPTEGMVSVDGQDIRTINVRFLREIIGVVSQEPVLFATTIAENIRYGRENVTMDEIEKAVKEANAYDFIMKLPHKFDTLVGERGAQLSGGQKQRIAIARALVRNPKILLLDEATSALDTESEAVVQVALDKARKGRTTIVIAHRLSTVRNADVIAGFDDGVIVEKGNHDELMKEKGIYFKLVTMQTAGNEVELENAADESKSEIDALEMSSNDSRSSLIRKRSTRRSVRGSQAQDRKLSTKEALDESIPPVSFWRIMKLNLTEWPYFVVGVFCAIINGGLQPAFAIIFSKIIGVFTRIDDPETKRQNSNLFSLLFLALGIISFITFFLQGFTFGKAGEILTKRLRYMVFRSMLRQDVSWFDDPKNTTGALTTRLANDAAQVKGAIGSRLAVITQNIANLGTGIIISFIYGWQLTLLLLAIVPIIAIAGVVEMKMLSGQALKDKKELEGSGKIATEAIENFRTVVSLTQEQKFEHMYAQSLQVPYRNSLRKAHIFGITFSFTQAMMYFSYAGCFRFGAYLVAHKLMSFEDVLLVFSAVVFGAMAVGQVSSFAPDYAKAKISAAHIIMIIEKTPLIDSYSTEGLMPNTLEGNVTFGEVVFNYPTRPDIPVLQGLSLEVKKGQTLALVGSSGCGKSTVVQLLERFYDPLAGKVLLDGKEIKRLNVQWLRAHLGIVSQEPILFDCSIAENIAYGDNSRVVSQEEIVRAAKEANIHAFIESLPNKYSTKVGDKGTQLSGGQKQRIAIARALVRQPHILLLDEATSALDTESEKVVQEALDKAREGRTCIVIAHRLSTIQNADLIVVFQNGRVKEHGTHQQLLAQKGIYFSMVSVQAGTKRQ

In the case of `COc1cc2c(cc1OC)CN(C(=O)c1cccc(Sc3c[nH]c4ccc(-c5cnn(C)c5)cc34)c1)CC2`, the inhibition at 5 µM in the series with MCF7 worked out at 22.7%; in the series with NCI/ADR-RES [1], 19.6%. The “Ratio IC50” value in the series on NCI/ADR-RES [2] is on record as 46.3.
The corresponding values for `O=C(NCc1ccccn1)c1cccc([Se]c2c[nH]c3ccccc23)c1` are 17.5%, 15.1% and 8.49.
`COc1ccc(NC(=O)c2ccc3[nH]cc([Se]c4cccc(C(=O)N5CCc6cc(OC)c(OC)cc6C5)c4)c3c2)cc1`: the values for the inhibition at 5 µM with MCF7 and in the series on NCI/ADR-RES [1] were 5.9% and 8.7%, respectively. Also, the “Ratio IC50” value in the series on NCI/ADR-RES [2] was 9.1.
For the molecule `COc1cc2c(cc1OC)CN(C(=O)c1cccc([Se]c3c[nH]c4ccc(C(=O)Nc5ccc(F)cc5)cc34)c1)CC2`, the inhibition at 5 µM was found to be 9.6% in the series on MCF7 and 1.3% in the series on NCI/ADR-RES [1]. Also, in the series on NCI/ADR-RES [2], the “Ratio IC50” value was 6.9.
The corresponding values for `COc1ccc(-c2ccc(C(=O)N3CCc4cc(OC)c(OC)cc4C3)o2)cc1` are 11.7%, 16.3% and 23.7.
The matching figures for `COc1ccc(CNC(=O)c2cccc([Se]c3c[nH]c4ncccc34)c2)cc1OC`: 15.7%, 13.4% and 4.
Turning to `COc1cc2c(cc1OC)CN(C(=O)c1cccc([Se]c3c[nH]c4ccc(C(=O)NCCN(C)C)cc34)c1)CC2`, the inhibition at 5 µM in the series on MCF7 turned out to be 9.7%; with NCI/ADR-RES [1], 13.6%. Further, the “Ratio IC50” value with NCI/ADR-RES [2] amounted to 7.5.
The corresponding values for `O=C(NCc1ccccn1)c1cccc([Se]c2c[nH]c3ccc(F)cc23)c1` are 3.6%, 13.5% and 2.7.
The matching figures for `COc1cc2c(cc1OC)CN(C(=O)c1cccc([Se]c3c[nH]c4ccccc34)c1)CC2`: 1.8%, 11.2% and 4.12.
The corresponding values for `COc1cc2c(cc1OC)CN(CCc1ccc(NC(=O)c3cc(OC)c(OC)cc3NC(=O)c3cnc4ccccc4c3)cc1)CC2` are 36.9%, 45.1% and 261.6.
Consider `O=C(NCc1ccccn1)c1cccc([Se]c2c[nH]c3ncccc23)c1`, for which the inhibition at 5 µM in the series with MCF7 turned out to be 1%; in the series with NCI/ADR-RES [1] it was 3%. Also, in the series on NCI/ADR-RES [2], the “Ratio IC50” value was determined as 2.
Consider `COc1cc2c(cc1OC)CN(C(=O)c1cccc([Se]c3c[nH]c4ccc(-c5cnn(C)c5)cc34)c1)CC2`, for which the inhibition at 5 µM in the series with MCF7 is 21.1%; in the series with NCI/ADR-RES [1] it was 33.7%. For the same molecule, the “Ratio IC50” value in the series on NCI/ADR-RES [2] was 271.7. The “inhibition (INH)” value in series [3] is “Dose-Dependent Effect”; in series [5] it was “Active”. The result in the series on NCI/ADR-RES [4] was inactive.
As for `COc1cc2c(cc1OC)CN(C(=O)c1cccc([Se]c3c[nH]c4ccc(C(=O)NC(C)C)cc34)c1)CC2`, the inhibition at 5 µM in the series with MCF7 was 11.2%; with NCI/ADR-RES [1] it was 13%. Moreover, the “Ratio IC50” value in the series with NCI/ADR-RES [2] is listed as 3.9.
With `COc1ccc(CNC(=O)c2cccc([Se]c3c[nH]c4ccccc34)c2)cc1OC`, the inhibition at 5 µM in the series on MCF7 worked out at 8.6%; with NCI/ADR-RES [1], 15.4%. In addition, the “Ratio IC50” value with NCI/ADR-RES [2] is on record as 2.4.
The corresponding values for `COc1ccc(NC(=O)c2ccc([Se]c3c[nH]c4ccccc34)cc2)cc1OC` are 5.5%, 7.3% and 3.98.
`CNC(=O)c1ccc2[nH]cc([Se]c3cccc(C(=O)NCc4ccccn4)c3)c2c1`: the figures for the inhibition at 5 µM in the series on MCF7 and in the series with NCI/ADR-RES [1] were 15.1% and 12.8%, respectively. For the same molecule, in the series on NCI/ADR-RES [2], the “Ratio IC50” value was determined as 5.7.
Regarding `COc1ccc(NC(=O)c2ccc3[nH]cc([Se]c4cccc(C(=O)NCc5ccccn5)c4)c3c2)cc1`, the inhibition at 5 µM amounted to 6.6% in the series with MCF7 and 9% in the series with NCI/ADR-RES [1]. Moreover, the “Ratio IC50” value with NCI/ADR-RES [2] was 4.4.
As for `COc1ccc(Cn2cc([Se]c3cccc(C(=O)Nc4ccc(OC)c(OC)c4)c3)c3ccccc32)cc1`, the inhibition at 5 µM in the series on MCF7 turned out to be 4.2%; with NCI/ADR-RES [1], 7%. Moreover, in the series with NCI/ADR-RES [2], the “Ratio IC50” value is 16.4.
In the case of `COc1cc2c(cc1OC)CN(C(=O)c1ccc([Se]c3c[nH]c4ccccc34)cc1)CC2`, the inhibition at 5 µM with MCF7 is 1.2%; with NCI/ADR-RES [1], 3.2%. In addition, in the series on NCI/ADR-RES [2], the “Ratio IC50” value was 3.06.
The corresponding values for `COc1ccc(CNC(=O)c2ccc([Se]c3c[nH]c4ccccc34)cc2)cc1OC` are 11.9%, 18.3% and 3.61.
The matching figures for `COc1ccc(NC(=O)c2cccc([Se]c3c[nH]c4ncccc34)c2)cc1OC`: 6.3%, 2% and 4.2.
The matching figures for `COc1cc2c(cc1OC)CN(C(=O)c1cccc([Se]c3c[nH]c4ccc(F)cc34)c1)CC2`: 17.4%, 26% and 95.1.
As for `COc1ccc(NC(=O)c2cccc([Se]c3c[nH]c4ccccc34)c2)cc1OC`, the inhibition at 5 µM stood at 5.2% in the series on MCF7 and 9.2% with NCI/ADR-RES [1]. The “Ratio IC50” value with NCI/ADR-RES [2] is 5.67.
The corresponding values for `COc1ccc(Cn2cc([Se]c3cccc(C(=O)N4CCc5cc(OC)c(OC)cc5C4)c3)c3ccccc32)cc1` are 10.5%, 4.7% and 25.8.
The corresponding values for `O=C(NCc1ccccn1)c1cccc([Se]c2c[nH]c3ccc(C(=O)Nc4ccc(F)cc4)cc23)c1` are 7%, 10.1% and 2.7.
The corresponding values for `CNC(=O)c1cccc2c([Se]c3cccc(C(=O)NCc4ccccn4)c3)c[nH]c12` are 9.2%, 13.2% and 2.
`O=C(NCc1ccccn1)c1ccc([Se]c2c[nH]c3ccccc23)cc1`: the inhibition at 5 µM with MCF7 turned out to be 0.2%; in the series with NCI/ADR-RES [1], 2.2%. Also, the “Ratio IC50” value with NCI/ADR-RES [2] was determined as 1.65.
The matching figures for `COc1ccc(NC(=O)c2cccc([Se]c3c[nH]c4ccc(-c5cnn(C)c5)cc34)c2)cc1OC`: 35.6%, 47% and 98.4.
Take `COc1ccc(NC(=O)c2ccc3[nH]cc([Se]c4cccc(C(=O)Nc5ccc(OC)c(OC)c5)c4)c3c2)cc1`: the inhibition at 5 µM with MCF7 turned out to be 5.2%; with NCI/ADR-RES [1], 1.7%. Also, the “Ratio IC50” value with NCI/ADR-RES [2] is 5.2.
Take `CNC(=O)c1ccc2[nH]cc([Se]c3cccc(C(=O)N4CCc5cc(OC)c(OC)cc5C4)c3)c2c1`: the inhibition at 5 µM with MCF7 is 1.2%; with NCI/ADR-RES [1] it was 9.4%. For the same molecule, the “Ratio IC50” value with NCI/ADR-RES [2] was determined as 5.1.
The corresponding values for `CNC(=O)c1ccc2c([Se]c3cccc(C(=O)NCc4ccccn4)c3)c[nH]c2c1` are 13.3%, 10.8% and 1.2.
The corresponding values for `COc1cc2c(cc1OC)CN(C(=O)c1cccc([Se]c3c[nH]c4ncccc34)c1)CC2` are 7.7%, 5.8% and 2.8.
For `COc1ccc(CCN(C)CCCC(C#N)(c2ccc(OC)c(OC)c2)C(C)C)cc1OC` (centres undefined), the inhibition at 5 µM in the series with MCF7 came out at 8.3%.
`CN(C)CCNC(=O)c1ccc2[nH]cc([Se]c3cccc(C(=O)NCc4ccccn4)c3)c2c1`: the figures for the inhibition at 5 µM in the series on MCF7 and in the series on NCI/ADR-RES [1] were 15.5% and 20.9%, respectively. The “Ratio IC50” value in the series on NCI/ADR-RES [2] was 3.6.
Consider `C/C=C/C[C@@H](C)[C@@H](O)[C@H]1C(=O)N[C@@H](CC)C(=O)N(C)CC(=O)N(C)[C@@H](CC(C)C)C(=O)N[C@@H](C(C)C)C(=O)N(C)[C@@H](CC(C)C)C(=O)N[C@@H](C)C(=O)N[C@H](C)C(=O)N(C)[C@@H](CC(C)C)C(=O)N(C)[C@@H](CC(C)C)C(=O)N(C)[C@@H](C(C)C)C(=O)N1C` [CYCLOSPORINE], for which the inhibition at 5 µM with NCI/ADR-RES [1] was found to be 25.6%.

The values are drawn from ChEMBL document CHEMBL5505974, “Design, synthesis, and bioactivity evaluation of novel indole-selenide derivatives as P-glycoprotein inhibitors against multi-drug resistance in MCF-7/ADR cell” (Eur J Med Chem, 2024).
